Experimental data published in patent US4710500A, “1-(4'-fluorophenyl)-3,5-substituted indoles useful in the treatment of psychic disorders and pharmaceutical compositions thereof” (H. Lundbeck A/S, priority 1985, dated 1987).
Where two headings read alike, the source gives them in different places.

How the values were obtained:
[1] = molecular target: T1, serotomin2 (5-HT2) receptors (Rattus norvegicus, UniProt P14842); assay: 3H-spiroperidol binding, 5-HT2 receptors in rat cortical membranes; conditions: in vitro, read-out: 3H-Spiroperidol bindings 5-HT2 receptors IC50
T1 construct: 5-HT2 receptors in rat cortical membranes; from tissue; host or cells: rat cortical membranes
T1 sequence (P14842 whole entry): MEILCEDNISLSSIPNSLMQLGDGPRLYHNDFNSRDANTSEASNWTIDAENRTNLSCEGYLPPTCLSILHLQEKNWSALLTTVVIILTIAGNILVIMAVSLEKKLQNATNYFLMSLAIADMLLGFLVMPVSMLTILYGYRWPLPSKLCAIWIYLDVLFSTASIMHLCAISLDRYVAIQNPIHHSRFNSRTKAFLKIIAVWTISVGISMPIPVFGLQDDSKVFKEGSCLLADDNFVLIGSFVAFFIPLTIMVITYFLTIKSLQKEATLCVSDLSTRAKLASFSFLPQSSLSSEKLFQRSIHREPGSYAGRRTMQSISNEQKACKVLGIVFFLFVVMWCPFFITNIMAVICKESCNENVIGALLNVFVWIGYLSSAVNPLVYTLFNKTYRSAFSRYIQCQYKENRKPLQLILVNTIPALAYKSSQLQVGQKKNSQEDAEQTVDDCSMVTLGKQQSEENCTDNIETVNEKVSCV
Method: (§1) 4. ^3 H-spiroperidol bindings
The affinity of compounds to dopamine (DA) D-2 receptors and serotomin2 (5-HT2) receptors was determined by in vitro receptor binding technique. Binding of ^3 H-spiroperidol to DA D-2 receptors in rat striatal membranes and to 5-HT2 receptors in rat cortical membranes was determined as described in detail by Arnt et al. (1984).
(§2) Arnt, J., J. Hyttel and J.-J. Larsen: Acta pharmacol. et toxicol. 55, 363-372, 1984.

5-HT2 receptor = molecular target: T2, 5-HT2 receptor (Rattus norvegicus, UniProt P14842); assay: Quipazine inhibition (head twitches); assay type: in vivo; conditions: sc 2 hours before quipazine 15 umol/kg sc
T2 construct: from tissue; host or cells: living rats (in vivo), CNS
T2 sequence (P14842 whole entry): as above
Method: Quipazine and a number of other compounds, which increase 5-HT2 receptor activity in the CNS, induce a characteristic rapid shake (twitch) of the head. This response is inhibited by 5-HT2 receptor antagonists (Vetulani et al. 1980, Arnt et al. 1984).
The test compound or saline is injected subcutaneously 2 hours before subcutaneous injection of quipazine hemimalecate (15umol/kg). At least 3 dose groups, each consisting of at least 4 rats, are used. The rats are individually placed in observation cages (12×25 cm) and the number of head twitches are counted 30-40 min after quipazine administration. Inhibition of head twitches is expressed in per cent of the number of head twitches in the control group. ED 50 values are calculated by log-probit analysis.
Vetulani, J., B.B. Beduarczyk, K. Reichenberg and A. Rokost: Neuropharmacology 19, 155-158, […].
as §2

Catalepsy = assay type: in vivo, rat
[2] = tested on: methylphenidate-induced gnawing; assay: Methylphenidate antagonism; assay type: in vivo, mice; conditions: for ED50: Mus musculus
[3] = molecular target: T3, dopamine (DA) D-2 receptors (Rattus norvegicus, UniProt P61169); assay: 3H-spiroperidol binding, dopamine D-2 receptors in rat striatal membranes
T3 construct: DA D-2 receptors in rat striatal membranes; from tissue; host or cells: rat striatal membranes
T3 sequence (P61169 whole entry): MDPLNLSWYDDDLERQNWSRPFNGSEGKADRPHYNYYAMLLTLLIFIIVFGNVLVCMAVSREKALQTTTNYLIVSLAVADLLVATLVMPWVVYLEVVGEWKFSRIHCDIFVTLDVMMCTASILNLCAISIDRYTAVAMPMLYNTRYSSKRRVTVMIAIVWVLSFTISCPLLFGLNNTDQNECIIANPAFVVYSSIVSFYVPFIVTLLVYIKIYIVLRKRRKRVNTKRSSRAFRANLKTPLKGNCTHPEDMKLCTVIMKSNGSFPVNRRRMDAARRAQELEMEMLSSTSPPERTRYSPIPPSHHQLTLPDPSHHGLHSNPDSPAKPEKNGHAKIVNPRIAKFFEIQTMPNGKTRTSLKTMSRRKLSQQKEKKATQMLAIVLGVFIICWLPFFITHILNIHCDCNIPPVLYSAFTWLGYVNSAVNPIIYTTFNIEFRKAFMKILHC
Method: as §1
The affinity of compounds to dopamine (DA) D-2 receptors and serotomin2 (5-HT2) receptors was determined by in vitro receptor binding technique.
Arnt, J., J. Hyttel and J.-J. Larsen: Acta pharmacol. et toxicol.

in vivo = conditions: mouse, iv
[4] = i.v., mice; compared with known neuroleptics
[5] = pharmacological testing (general statements); conditions: result in words
Method: The compounds of Formula I were tested according to reliable and well recognized pharmacological tests as follows: […]

[6] = i.p. test substance, mice, methylphenidate s.c. 60 mg/kg
[7] = rat striatal membranes, in vitro, read-out: 3H-Spiroperidol bindings DA-2 receptors IC50
[8] = Rattus norvegicus, sc, 24 h, read-out: Catalep. ED50 (sc) 24 h

SMILES	IC50 [1] [nM]	Qvipaz. inh. ED50(sc) (5-HT2 receptor) [µmol/kg]	Catalep. ED50(po) 1-6 h (Catalepsy; po, rat, 1-6 h) [µmol/kg]	Catalep. ED50(po) 24 h (Catalepsy; po, rat, 24 h) [µmol/kg]	MePh Antg. ED50(ip) [2, 6] [µmol/kg]	IC50 [3, 7] [nM]	LD50 (in vivo) [µmol/kg]	acute toxicity [4]	ED50 (Catalepsy; read-out: Catalep. ED50(po) 1-6 h, po, rat, 1-6 h) [µmol/kg]	ED50 (Catalepsy; read-out: Catalep. ED50(po) 24 h, po, rat, 24 h) [µmol/kg]	ED50 ([2]; ip, i.p. test substance, mice, methylphenidate s.c. 60 mg/kg, read-out: MePh Antg. ED50(ip)) [µmol/kg]	ED50 (Catalepsy; Rattus norvegicus, po, read-out: Catalep. ED50(po) 1-6 h) [µmol/kg]	ED50 (Catalepsy; [8]) [µmol/kg]	ED50 ([2]; ip, read-out: MePh Antg. ED50(ip)) [µmol/kg]	IC50 [3] [nM]	effects in the pharmacological testing [5]	ED50 (Catalepsy; Rattus norvegicus, sc, read-out: Catalep. ED50 (sc) 1-6 h) [µmol/kg]	ED50 ([2]; sc, read-out: MePh Antg. ED50 (sc)) [µmol/kg]
OCCN1CCN([C@@H]2C[C@@H](c3ccc(F)cc3)c3ccc(C(F)(F)F)cc32)CC1 (racemic) [Tefludazine, reference compound]	8.6	0.06	0.61	0.9	0.06	19	120 to 180											
OCCN1CCN(c2cn(-c3ccc(F)cc3)c3ccc(C(F)(F)F)cc23)CC1 [Lu 21-152, 1-(4'-Flurophenyl)-3-(4-(2-hydroxyethyl)-piperazino)-5-trifluoromethyl-1H-indole]	7.4	0.023				2.8	147	comparatively low acute toxicity	0.17	0.28	0.11							
CN1CC=C(c2cn(-c3ccc(F)cc3)c3ccc([N+](=O)[O-])cc23)CC1 [Lu 22-135, 1-(4'-Fluorophenyl)-5-nitro-3-(1-methyl-1,2,3,6-tetrahydropyridin-4-yl)-1H-indole]	1.9	0.009					276	comparatively low acute toxicity				0.078	> 0.89	0.1	1.1			
CN1CCN(c2cn(-c3ccccc3)c3ccc(Cl)cc23)CC1 [Lu 23-015, 5-Chloro-3-(4-methylpiperazino)-1-phenyl-1H-indole, reference compound]	3.9	0.062	12.0	> 15	8.8	12										without interesting effects		
OCCN1CC=C(c2c[nH]c3ccc(Cl)cc23)CC1 [Lu 23-143, 5-chloro-3-(1-(2-hydroxyethyl)-1,2,3,6-tetrahydropyrid-4-yl)indol, reference compound]		4.5											> 18			almost inactive compared with the compounds of Formula I	> 18	72
